The text below walks through data of ChEMBL document CHEMBL4622926, “Fibroblast growth factor receptor modulators employing diamines with reduced phospholipidosis-inducing potential” (Bioorg Med Chem, 2020).

The species entered for series [1] is Rattus norvegicus. The experiment in a line: Modulation of FGFR in Wistar rat cerebrocortical/hippocampal neuronal cells assessed as protection against glutamate-induced neuronal cell death by measuring cell survival at 10 uM pretreated for 24 hrs followed by glutamate-stimulation by CCK8 assay relative to SUN13837.
Series [2] can be described thus: Partition coefficient, logP of compound by RP-HPLC analysis. Type of series: physicochemical. The conditions noted are these: octanol/water.
For a further series, the target named is CYP3A4 (Homo sapiens, UniProt P08684). As to the kind of experiment: (§1) Mechanism based inactivation of CYP3A4 in human liver microsome assessed as remaining activity at 100 uM preincubated for 30 mins followed testosterone addition and measured after 10 mins by LC-MS/MS analysis relative to control. Type of series: ADME, microsomes. The conditions noted are these: human liver microsomes, probe testosterone, read-out: Activity.

Series [3] in a line: Volume of distribution in Crl:CD(SD) rat at 1 mg/kg, iv by LC-MS/MS analysis. Type of series: ADME, organism-based. The conditions noted are these: in vivo.
Series [4] is described as follows: Elimination half life in Crl:CD(SD) rat at 1 mg/kg, iv by LC-MS/MS analysis. Format: ADME, organism-based. Particulars: in vivo, read-out: beta t1/2 (converted).
Series [5] can be described thus: Ratio of drug level in Crl:CD(SD) rat brain to plasma at 1 mg/kg, iv measured after 1 hr by LC-MS/MS analysis. Type of series: ADME, organism-based.
Series [6] in a line: Oral bioavailability in Crl:CD(SD) rat at 5 mg/kg by LC-MS/MS analysis. Format: ADME, organism-based. The conditions noted are these: in vivo.
A short description of series [7]: AUC in Crl:CD(SD) rat at 5 mg/kg, po by LC-MS/MS analysis. The conditions noted are these: in vivo. Format: ADME, organism-based.
The nature of series [8]: Clearance in Crl:CD(SD) rat at 1 mg/kg, iv by LC-MS/MS analysis. Format: ADME, organism-based. The conditions noted are these: in vivo.
The target of a further series is Cytochrome P450 3A4 (Homo sapiens, UniProt P08684). Described as §1. Format: ADME, microsomes. The conditions noted are these: microsomes, 10 min, 100 µM.
The nature of series [9]: AUC in Crl:CD(SD) rat at 10 mg/kg, po by LC-MS/MS analysis. Type of series: ADME, organism-based. The conditions noted are these: in vivo.
Series [10] in a line: Drug metabolism in human liver microsomes assessed as carboxylesterase-mediated hydrolytic rate for diamine compound formation at 100 uM incubated for 60 mins in absence of NADPH measured per mg protein by LC-MS/MS analysis. Type of series: ADME. The conditions noted are these: 1 h. In general terms: Microsomes from liver hold many membrane-bound enzymes, among them those of drug oxidation.

The nature of series [11]: Oral bioavailability in Crl:CD(SD) rat at 10 mg/kg by LC-MS/MS analysis. Type of series: ADME, organism-based. Particulars: in vivo.
Series [12] concerns Rattus norvegicus. As to the kind of experiment: Neuroprotective activity against microsphere induced Crl:CD(SD) rat cerebral embolism model assessed as recovery of motor coordination by measuring latency time at 1 mg/kg, po administered daily for 10 days starting from day 1 post microsphere injection and measured at 2 weeks after microsphere injection by rotarod test (reference value: 189.1 secs). Format: functional.

Chain of CYP3A4 (P08684 whole entry): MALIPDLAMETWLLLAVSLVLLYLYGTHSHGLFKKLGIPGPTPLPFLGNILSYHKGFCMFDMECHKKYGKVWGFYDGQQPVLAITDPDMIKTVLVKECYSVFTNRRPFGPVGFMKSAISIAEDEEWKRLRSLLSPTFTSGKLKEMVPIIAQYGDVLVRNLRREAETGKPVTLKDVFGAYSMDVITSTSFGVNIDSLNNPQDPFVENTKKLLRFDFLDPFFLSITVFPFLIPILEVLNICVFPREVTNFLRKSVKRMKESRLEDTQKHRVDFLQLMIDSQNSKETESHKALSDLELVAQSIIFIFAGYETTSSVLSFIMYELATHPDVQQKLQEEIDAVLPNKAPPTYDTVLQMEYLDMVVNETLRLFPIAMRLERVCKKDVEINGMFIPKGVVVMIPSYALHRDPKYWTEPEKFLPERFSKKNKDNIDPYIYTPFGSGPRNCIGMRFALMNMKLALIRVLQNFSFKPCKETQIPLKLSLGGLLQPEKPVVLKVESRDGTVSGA
Chain of Cytochrome P450 3A4 (P08684 whole entry): as above

The logP is a log measure of how a compound divides between an organic and an aqueous phase. Turning to `Cc1nc(OCC(=O)N(C)C2CCN(C3(C)COC3)CC2)nc(C)c1N`, in the series filed under Rattus norvegicus [1], the Activity was 59%. Moreover, the logP in series [2] (read-out: logP) came out at 1.2. Also, the activity at 10 min, 100 µM at CYP3A4 was 97%.

Turning to `CN(C(=O)COc1ccc(Cl)nn1)C1CCN(Cc2ncccc2F)CC1`, in the series filed under Rattus norvegicus [1], the Activity came out at 44%. Also, the logP in series [2] (read-out: logP) turned out to be 2.6. For the same compound, the activity at 10 min, 100 µM at CYP3A4 came to 100%.

A word on the Vd: it is a proportionality between amount in the body and measured concentration, not a real space. Usually Kp stands for tissue or fluid exposure divided by exposure in the circulation. The term bioavailability denotes dose-corrected exposure relative to a reference, in per cent. A higher bioavailability goes with good availability. What is called AUC is concentration integrated over time. A high value points to more exposure. As a reminder, the clearance is the volume of plasma or blood freed of the substance per unit of time. A low value points to a low capacity for elimination. In series [3], `Cc1nc(OCC(=O)N(C)C2CCN(CC3CC3(F)F)CC2)nc(C)c1N.Cl` (racemic) returned a Vd of 3.2 L/kg. Further, the Activity in the series listed under Rattus norvegicus [1] is 189%. In series [2] (read-out: logP), the logP worked out at 2.2. Also, the half-life in series [4] is 2.7 h. Moreover, the Kp at 1 h in [5] was determined as 0.12. For the same compound, the bioavailability in series [6] stood at 52%. The area under the curve (AUC) in series [7] came out at 1100 ng·h/mL. The activity at 10 min, 100 µM on CYP3A4 is 86%. In [8], this compound had a clearance of 38.3 mL/min/kg.

On to `Cc1nc(OCC(=O)N(C)C2CCN(Cc3ncccc3F)CC2)nc(C)c1N`, for which, in the series listed under Rattus norvegicus [1], the Activity was found to be 119%. Further, the lipophilicity (logP) in [2] (read-out: logP) was determined as 1.7. Also, the activity at 10 min, 100 µM on CYP3A4 came out at 62%.

Take `C[C@@H]1C[C@H]2[C@@H]3CCC4=CC(=O)C=C[C@]4(C)[C@@]3(F)[C@@H](O)C[C@]2(C)[C@@]1(O)C(=O)CO` [DEXAMETHASONE]: in series [2] (read-out: logP), the lipophilicity (logP) was determined as 2.82.

Take `Cc1nc(OCC(=O)N(C)C2CN(Cc3ccccc3)CC2F)nc(C)c1N.Cl` (centres undefined): the logP in series [2] is given as 4.8. Further, on Cytochrome P450 3A4, the Activity is recorded as 96%.

In turn, `Cc1nc(OCC(=O)N(C)C2CCN(Cc3ccccc3)CC2)nc(C)c1N` registered an AUC in series [9] of 3700 ng·h/mL. In addition, in series [3], the Vd was 2.3 L/kg. Moreover, the half-life in [4] is 1.4 h. Further, in series [5], the Kp at 1 h was determined as 0.15. For the same compound, the Drug metabolism in series [10] was determined as 7.2 pmol/min. The bioavailability in series [11] turned out to be 70%. Also, the activity at 10 min, 100 µM at CYP3A4 came out at 60%. Moreover, the clearance in series [8] was 41.7 mL/min/kg. Further, the Time in the series with Rattus norvegicus [12] was 307 s.

Take `Cc1nc(OCC(=O)N(C)C2CCN(Cc3ncccn3)CC2)nc(C)c1N`: in the series filed under Rattus norvegicus [1], the Activity was 96%. For the same compound, the logP in series [2] (read-out: logP) worked out at 1. Besides, the activity at 10 min, 100 µM on CYP3A4 was determined as 99%.

Turning to `Cc1nc(OCC(=O)N(C)C2CCN(CC(F)(F)F)CC2)nc(C)c1N`, in the series listed under Rattus norvegicus [1], the Activity is 103%. For the same compound, in [2] (read-out: logP), the logP was determined as 2.6. For the same compound, the activity at 10 min, 100 µM on CYP3A4 is 75%.

Turning to `Cc1nc(OCC(=O)N(C)C2CCN(C3COC3)CC2)nc(C)c1N`, the Activity in the series listed under Rattus norvegicus [1] came to 78%. For the same compound, the logP in series [2] (read-out: logP) amounted to 1.1. The activity at 10 min, 100 µM at CYP3A4 worked out at 95%.

`CN(C(=O)COc1ccc(Cl)nn1)C1CCN(CC(F)(F)F)CC1`: the Activity in the series filed under Rattus norvegicus [1] was 74%. Besides, the logP in [2] (read-out: logP) worked out at 4. Moreover, the activity at 10 min, 100 µM at CYP3A4 was found to be 100%.

Regarding `Cc1nc(OCC(=O)N(C)C2CCN(CC(C)(C)O)CC2)nc(C)c1N`, the Activity in the series filed under Rattus norvegicus [1] turned out to be 74%. For the same compound, the logP in series [2] (read-out: logP) came to 0.7. The activity at 10 min, 100 µM at CYP3A4 was 97%.

In the case of `Cc1nc(OCC(=O)N(C)C2CN(Cc3ccccc3)CC2F)nc(C)c1N` (centres undefined), in series [2] (read-out: logP), the logP worked out at 3.7. The Activity at Cytochrome P450 3A4 was 16%.

For `Cc1nc(OCC(=O)N(C)C2CCN(CC(F)F)CC2)nc(C)c1N`, the Activity in the series filed under Rattus norvegicus [1] was determined as 76%. Further, the logP in series [2] (read-out: logP) was found to be 2. Also, the activity at 10 min, 100 µM on CYP3A4 amounted to 98%.

`CC(C)Cc1ccc(C(C)C(=O)O)cc1` (centres undefined) [IBUPROFEN]: the logP in [2] (read-out: logP) came out at 2.97.

As for `Cc1nc(OCC(=O)N(C)C2CCN(Cc3ccccc3)C2)nc(C)c1N` (centres undefined), the Activity in the series listed under Rattus norvegicus [1] was 77%. The logP in [2] (read-out: logP) is 2.6. The activity at 10 min, 100 µM on CYP3A4 turned out to be 55%.

In turn, `CN(C(=O)COc1ccc(Cl)nn1)C1CCN(CC2CC2(F)F)CC1` (centres undefined) registered a Vd in series [3] of 4.2 L/kg. For the same compound, the Activity in the series listed under Rattus norvegicus [1] was determined as 105%. Also, in [2] (read-out: logP), the logP is 3.1. Further, the half-life in [4] was 1.7 h. For the same compound, the Kp at 1 h in [5] is 0.92. Also, in [10], the Drug metabolism came to 0 pmol/min. In series [6], this compound yielded a bioavailability of 73%. Moreover, in series [7], the AUC was determined as 1590 ng·h/mL. Besides, the activity at 10 min, 100 µM at CYP3A4 came to 99%. This compound also gave a clearance in [8] of 38.3 mL/min/kg. Further, in the series on Rattus norvegicus [12], the Time turned out to be 315.5 s.

Consider `Cc1nc(OCC(=O)N2CC[C@@H]3[C@H]2CN3Cc2ccccc2)nc(C)c1N`, for which the Activity in the series filed under Rattus norvegicus [1] was found to be 87%. In [2] (read-out: logP), the logP stood at 2.8. Further, the activity at 10 min, 100 µM on CYP3A4 came to 40%.

Turning to `Cc1nc(OCC(=O)N(C)C2CN(Cc3ccccc3)C2)nc(C)c1N`, in the series listed under Rattus norvegicus [1], the Activity amounted to 127%. The logP in series [2] (read-out: logP) stood at 2.1. Moreover, the activity at 10 min, 100 µM at CYP3A4 is 58%.

On to `Cc1nc(OCC(=O)N(C)[C@H]2CN(Cc3ccccc3)C[C@@H]2O)nc(C)c1N` (relative stereo), for which the Activity in the series filed under Rattus norvegicus [1] came to 93%. The logP in series [2] (read-out: logP) is 2.4. In addition, the activity at 10 min, 100 µM at CYP3A4 amounted to 55%.
